Where two headings read alike, the source gives them in different places.
Legend:
[1] = target: T1, rat lens aldose reductase (RLAR) (Rattus norvegicus, UniProt P07943); assay: Rat lens aldose reductase (RLAR) inhibitory assay, DL-glyceraldehyde as substrate; type: biochemical; conditions: for inhibition at 1 µg/mL: concentration 1 μg/mL; for inhibition at 5 µg/mL: concentration 5 μg/mL; for inhibition at 10 µg/mL: read-out: Inhibition (%) of RLAR; for IC50: least-squares regression of log concentration vs inhibitory activity; for inhibition at 40 µg/mL: concentration 40 μg/mL
T1 construct: from tissue; host or cells: rat lens (Sprague-Dawley) homogenate, partially purified
Experimental: RLAR activity was assayed according to the methods described by Dufrane et al.. […] The rat lens homogenate was prepared according to the method of Hayman and Kinoshita with some modifications. […] The partially purified material was separated into 1.0 mL aliquots and stored at −40°C. […] Each 1.0 mL cuvette contained equal units of enzyme, 0.05 M sodium phosphate buffer (pH 6.2), and 0.3 mM NADPH with or without 10 mM substrate and inhibitor. For inhibition studies, concentrated stocks of AR inhibitors prepared in DMSO were used, and the final concentration of DMSO was not more than 1%.

[2] = system: galactitol accumulation in rat lens; assay: Lens culture and intracellular galactitol measurement; type: cell-based; conditions: 30 mM galactose, compound 5 μg/mL; for Galactitol content μg/lens wet weight (g): mean ± SD of triplicate; for inhibition at 5 µg/mL: Rattus norvegicus
Experimental: Lenses isolated from 10-week-old male rats were cultured for 6 d in TC-199 medium that contained 15% fetal bovine serum 100 U/mL penicillin and 0.1 mg/mL streptomycin under sterile conditions in an atmosphere of 5% CO2 and 95% air at 37°C. Samples were dissolved in DMSO. […] Each lens was placed in well containing 1.0 mL of medium. Lenses from each group were minced in 150 μL of phosphate-buffered saline on ice, homogenized by sonication, and centrifuged at 22.000 g for 10 min at 4°C. The supernatant was filtered through a membrane filter (Ultrafree-MC, nominal molecular weight limit 10,000; Millipore, Bedford, MA, USA) to remove proteins. HPLC analysis for sugar alcohol in lens was performed with this filtrate after being benzoylated.

[3] = target: T2, recombinant human aldose reductase (rhAR) (Homo sapiens, UniProt P15121); assay: Kinetics of rhAR by active compounds (Lineweaver-Burk plots); type: biochemical; conditions: DL-glyceraldehyde 0.1-1.0 mM
T2 construct: purchased Wako Pure Chemical Industries (Osaka, Japan)
Experimental: Reaction mixtures consisted of 0.1 M potassium phosphate, 0.16 mM NADPH, and […] of rhAR with varied concentrations of substrate DL-glyceraldehyde and AR inhibitor in a total volume of 200 μL. Concentrations were ranged from 0.1 to 1.0 mM for DL-glyceraldehyde. rhAR activity was assayed spectrophotometrically by measuring the decrease in absorption of NADPH at 340 nm after substrate addition using Biotek Power Wave XS spectrophotometer (Biotek instruments, VT, USA). K m and V max of rhAR were determined with varying concentrations of DL-glyceraldehyde as a substrate in the absence and presence of different concentrations of inhibitor by Lineweaver-Burk double reciprocal plots. Inhibitory constant (K i) was derived by plotting slopes obtained from Lineweaver-Burk plots versus inhibitors concentration.

[4] = system: galactitol accumulation in rat erythrocytes; assay: Blood culture and intracellular galactitol measurement; type: cell-based; conditions: 30 mM galactose, 50 μg/mL compound, 3 h; for inhibition at 50 µg/mL: Rattus norvegicus, Erythrocyte
Experimental: Blood sample was collected in heparin-containing polypropylene tube from 10-week-old male rats. For sugar and sugar alcohol analysis, erythrocytes from heparinized blood were separated from the plasma and buffy coat by centrifuging at 2000 ×g for 10 min. The cells were washed thrice with normal saline (0.9% NaCl) at 4°C. In the final washing, the cells were centrifuged at 2000 ×g for 10 min to obtain a consistently packed cell preparation. The packed cells (1 mL) were then incubated in a Krebs-Ringer bicarbonate buffer (pH 7.4) containing 30 mM galactose in the presence or absence of samples at 37°C in 5% CO2 for 3 h. The erythrocytes were washed with cold saline by centrifuging at 2000 ×g for 10 min, precipitated by adding 6% of cold perchloric acid (3 mL), and centrifuged again at 2000 ×g for 10 min. The supernatant was neutralized with 2.5 M K2CO3 at 4°C and used for galactitol determination. HPLC analysis for sugar and sugar alcohol in blood was performed with this supernatant of red blood cell homogenate after being benzoylated.

[5] = concentration 10 μg/mL, mean of triplicate
[6] = read-out: IC50 (μg/mL) RLAR (converted)

| inhibition at 1 µg/mL ([1]; mean of triplicate) [%] | inhibition at 5 µg/mL ([1]; mean of triplicate) [%] | inhibition at 10 µg/mL [1, 5] [%] | IC50 ([1]; read-out: IC50 (μM) RLAR) [µM] | IC50 [1, 6] [µM] | RLAR inhibitory activity (in words) [1] | inhibition at 40 µg/mL ([1]; mean of triplicate) [%] | Structure (SMILES) | inhibition at 10 µg/mL [1] [%] | Galactitol content μg/lens wet weight (g) [2] | inhibition at 5 µg/mL [2] [%] | Inhibition type of rhAR [3] | Galactitol content (μM) in rat erythrocyte [4] [µM] | inhibition at 50 µg/mL [4] [%] |
| --- | --- | --- | --- | --- | --- | --- | --- | --- | --- | --- | --- | --- | --- |
| 13.8 | 43.7 | 77.8 | 36.7 | 36.7 |  |  | O=C(O)C=Cc1ccc(O)cc1 [p-hydroxycinnamic acid (4), p-hydroxycinnamic acid] |  |  |  |  |  |  |
| 11.2 | 49.8 | 77.2 | 21.9 | 21.8 |  |  | COc1cc(/C=C/C(=O)O)ccc1O [Ferulic acid (5), ferulic acid] |  |  |  |  |  |  |
| 16.9 | 48.1 | 73.7 | 34.8 | 34.8 |  |  | O=C(O)c1c(O)cc(O)cc1O [2,4,6-trihydroxybenzoic acid (3), 2,4,6-trihydroxybenzoic acid] |  |  |  |  |  |  |
|  |  | 20.3 |  | > 59.5 |  |  | COc1cc(C(=O)O)ccc1O [Vanillic acid (2), vanillic acid] |  |  |  |  |  |  |

More lines, now with the values behind:

| Structure (SMILES) | inhibition at 1 µg/mL ([1]; mean of triplicate) [%] | inhibition at 5 µg/mL ([1]; mean of triplicate) [%] | inhibition at 10 µg/mL [1, 5] [%] | IC50 ([1]; read-out: IC50 (μM) RLAR) [µM] | IC50 [1, 6] [µM] | RLAR inhibitory activity (in words) [1] | inhibition at 40 µg/mL ([1]; mean of triplicate) [%] | inhibition at 10 µg/mL [1] [%] | Galactitol content μg/lens wet weight (g) [2] | inhibition at 5 µg/mL [2] [%] | Inhibition type of rhAR [3] | Galactitol content (μM) in rat erythrocyte [4] [µM] | inhibition at 50 µg/mL [4] [%] |
| --- | --- | --- | --- | --- | --- | --- | --- | --- | --- | --- | --- | --- | --- |
| OC[C@H]1O[C@@H](Oc2cc3c(O)cc(O)cc3[o+]c2-c2ccc(O)c(O)c2)[C@H](O)[C@@H](O)[C@@H]1O [Cyanidin-3-glucoside (8), cyanidin-3-glucoside] |  |  |  |  | > 89 | did not RLAR inhibitory activity | 47.7 |  |  |  |  |  |  |
| O=C(O)CC(=O)OC[C@H]1O[C@@H](Oc2cc3c(O)cc(O)cc3[o+]c2-c2ccc(O)c(O)c2)[C@H](O)[C@@H](O)[C@@H]1O [Cyanidin-3-(6′′-malonylglucoside) (11), cyanidin 3-(6′′-malonylglucoside)] | 19 | 47.8 | 68 | 11.7 | 11.7 |  |  |  |  |  |  |  |  |
| COc1cc(-c2[o+]c3cc(O)cc(O)c3cc2O[C@@H]2O[C@H](CO)[C@@H](O)[C@H](O)[C@H]2O)ccc1O [Peonidin-3-glucoside (10), peonidin-3-glucoside] |  |  |  |  | > 86.3 | did not RLAR inhibitory activity | 37 |  |  |  |  |  |  |
| O=C(O)c1ccc(O)c(O)c1 [Protochatechuic acid (1), protocatechuic acid] |  |  |  |  | > 64.9 |  |  | 3.22 |  |  |  |  |  |
| COc1cc(-c2oc3cc(O)cc(O)c3c(=O)c2O[C@@H]2O[C@H](CO)[C@@H](O)[C@H](O)[C@H]2O)ccc1O [3′-methoxyhirsutrin (7), 3′-methoxyhirsutrin] | 16.4 | 73.7 | 89.7 | 5.67 | 5.66 |  |  |  | 828.35 ± 73.27 μg/lens wet weight (g) | 1.86 | uncompetitive | 20.19 | ~12 |
| O=C(O)CC(=O)OC[C@H]1O[C@@H](Oc2cc3c(O)cc(O)cc3[o+]c2-c2ccc(O)cc2)[C@H](O)[C@@H](O)[C@@H]1O [pelargonidin 3-(6′′-malonylglucoside)] |  |  |  |  | > 19.3 | did not RLAR inhibitory activity |  |  |  |  |  |  |  |
| O=c1c(O[C@@H]2O[C@H](CO)[C@@H](O)[C@H](O)[C@H]2O)c(-c2ccc(O)c(O)c2)oc2cc(O)cc(O)c12 [Hirsutrin (6), hirsutrin] | 27.6 | 76.2 | 86.7 | 4.78 | 4.78 |  |  |  | 558.92 ± 89.12 μg/lens wet weight (g) | ~33.8 | competitive | 15.70 | ~32.5 |
| O=c1c(O)c(-c2ccc(O)c(O)c2)oc2cc(O)cc(O)c12 [Quercetin, quercetin, reference compound] | 30.3 | 67.9 | 83 |  |  |  |  |  | 448.81 ± 69.43 μg/lens wet weight (g) | 46.8 |  | 16.15 | 30.5 |
| OC[C@H]1O[C@@H](Oc2cc3c(O)cc(O)cc3[o+]c2-c2ccc(O)cc2)[C@H](O)[C@@H](O)[C@@H]1O [Pelargonidin-3-glucoside (9), pelargonidin-3-glucoside] |  |  |  |  | > 92.3 | did not RLAR inhibitory activity | 13.2 |  |  |  |  |  |  |

Source: paper PMC3613087, “Aldose Reductase Inhibitory Activity of Compounds from Zea mays L” (BioMed Research International, 2013)
